Laboratory results as given in patent US20170319562A1, “Compositions and Methods for Extended Therapy with Aminopyridines” (Acorda Therapeutics, Inc., priority 2009, published 2017).

Experiments:
[1] = Single oral dose of 14C-labeled 4-aminopyridine (1 mg/kg) in rats; settings: for tissue-to-blood ratio: oral dose; for AUC / Cmax / Tmax / half-life: rat, plasma, po, 1 mg/kg
Procedure: (§1) Studies were performed in rats and dogs using “C-labeled 4-aminopyridine (1 mg/kg) given as a single oral gavage dose in solution.
In a single-dose study, rats were administered “C-labeled 4-aminopyridine (1 mg/kg) p.o. Three animals per time point were sacrificed 1, 3, 8, and 24 hours post-dose. Blood was collected and tissues were excised for determination of radioactivity.

[2] = Single oral dose of 14C-labeled 4-aminopyridine (1 mg/kg) in dogs; format: in vivo; settings: dog, plasma, 1 mg/kg oral
Procedure: as §1

## Nc1ccncc1 [^14C-4-Aminopyridine]
[1]; blood, one hour post-dose
  radioactivity in tissue, percentage of the dose: 0.7%
[1]; carcass, 3 hours post-dose
  radioactivity in tissue, percentage of the dose: 15.4%
[1]; carcass, one hour post-dose
  radioactivity in tissue, percentage of the dose: 51%
[1]; cerebellum
  tissue-to-blood ratio: 1.48
[1]; cerebrum
  tissue-to-blood ratio: 3.07
[1]; female
  AUC: 506 ± 63.3 ng·h/mL
  Cmax: 168 ± 15.7 ng/g
  Tmax: 0.5 h
  half-life: 1.4 ± 0.17 h
[1]; kidney, one hour post-dose
  radioactivity in tissue, percentage of the dose: 1.6%
[1]; liver, one hour post-dose
  radioactivity in tissue, percentage of the dose: 2.6%
[1]; male
  AUC: 498 ± 17.6 ng·h/mL
  Cmax: 189 ± 20.2 ng/g
  Tmax: 1 h
  half-life: 1.1 ± 0.04 h
[1]; one hour post-dose
  dose accounted for in total: 58.3%
[2]; female, females
  AUC: 1920 ± 150 ng·h/mL
  Cmax: 635 ± 103 ng/g
  Tmax: 0.8 ± 0.3 h
  half-life: 1.8 ± 0.04 h
[2]; male, males
  AUC: 2030 ± 406 ng·h/mL
  Cmax: 574 ± 123 ng/g
  Tmax: 1 h
  half-life: 2.1 ± 0.14 h
